Reference: patent US20240025906A1 (NEURON23, INC., priority 2022, published 2024)

How the values were obtained:
[1] = tested on: JAK1/TYK2 pSTAT5 (Tyr694/699) in THP-1 cell line; assay: IFNa-stimulated JAK1/TYK2 pSTAT5 (Tyr694/699) inhibition cellular assay, AlphaLISA; type: cell-based; details: Homo sapiens; THP-1 cells, IFNa-stimulated, AlphaLISA (Assay B); read-out: Cellular_THP1_IFNa-pSTATS_TYK2
Method in brief: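 The readout is AlphaLISA signal at 615 nm for phospho-STAT5 in THP-1 lysates after IFNa stimulation (added at 100 ng/mL, 30 min, 37 °C). Cells had compound for 1 h beforehand across eight 6-fold concentrations up to 10000 nM final. IC50s are 4PL fits with bottom and Hill slope constrained.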

[2] = molecular target: T1, TYK2 JH2 (Homo sapiens, UniProt P29597); assay: TYK2 JH2 binding assay (KINOMEscan KdELECT competitive binding); details: TYK2 JH2 domain, KINOMEscan KdELECT (Assay A); read-out: Biochemical TYK2_DiscoverX_JH2_BND_Kd
T1 construct: purchased DiscoverX (KINOMEscan KdELECT service); host or cells: E. coli BL21-derived (T7 phage display) or HEK-293
Method in brief: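 JH2-domain fragment, expressed as T7 phage tag in BL21-derived E. coli or DNA-tagged from HEK-293, competed with test compound against bead-immobilized biotinylated ligand in binding buffer (0.9% DMSO). 1 h shaking at room temperature; bound kinase eluted with 0.5 μM free ligand and quantified by qPCR. Kd from 11-point 3-fold dilutions.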

T1 sequence (P29597 589-875 limits assumed): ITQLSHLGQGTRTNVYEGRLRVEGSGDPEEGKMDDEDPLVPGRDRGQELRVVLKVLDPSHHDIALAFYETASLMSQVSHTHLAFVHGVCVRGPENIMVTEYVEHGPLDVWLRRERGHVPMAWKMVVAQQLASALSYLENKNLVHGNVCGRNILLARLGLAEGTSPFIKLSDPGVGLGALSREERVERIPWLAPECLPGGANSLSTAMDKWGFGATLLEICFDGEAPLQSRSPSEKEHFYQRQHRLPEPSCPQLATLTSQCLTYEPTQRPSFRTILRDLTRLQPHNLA

| SMILES | IC50 [1] | Kd [2] |
| --- | --- | --- |
| CNc1ncc(C#Cc2ccc(-n3ccccc3=O)cc2)c2cc(NC(=O)C3CC3)ncc12 [Example 671, N-(8-(methylamino)-5-((4-(2-oxopyridin-1(2H)-yl)phenyl)ethynyl)-2,7-naphthyridin-3-yl)cyclopropanecarboxamide] | ≤ 500 nM | ≤ 100 nM |
| CNC(=O)c1ccc(C#Cc2cnc(NC)c3cnc(NC(=O)C4CC4)cc23)cc1 [Example 672, 4-((6-(cyclopropanecarboxamido)-1-(methylamino)-2,7-naphthyridin-4-yl)ethynyl)-N-methylbenzamide] | ≤ 500 nM | ≤ 100 nM |
| CNc1ncc(C#Cc2ccc(S(=O)(=O)NC)cc2)c2cc(NC(=O)C3CC3)ncc12 [Example 673, N-(8-(methylamino)-5-((4-(N-methylsulfamoyl)phenyl)ethynyl)-2,7-naphthyridin-3-yl)cyclopropanecarboxamide] | ≤ 500 nM | ≤ 100 nM |
| CNc1ncc(C#Cc2ccc(N3CCCC3=O)cc2)c2cc(NC(=O)C3CC3)ncc12 [Example 674, N-(8-(methylamino)-5-((4-(2-oxopyrrolidin-1-yl)phenyl)ethynyl)-2,7-naphthyridin-3-yl)cyclopropanecarboxamide] | ≤ 500 nM | ≤ 100 nM |
| CNc1ncc(C#Cc2ccc(N3CCOC3=O)cc2)c2cc(NC(=O)C3CC3)ncc12 [Example 675, N-(8-(methylamino)-5-((4-(2-oxooxazolidin-3-yl)phenyl)ethynyl)-2,7-naphthyridin-3-yl)cyclopropanecarboxamide] | ≤ 500 nM | ≤ 100 nM |
| CNc1ncc(C#Cc2nc3ccc(OC)cn3n2)c2cc(NC(=O)C3CC3)ncc12 [Example 676, N-(5-((6-methoxy-[1,2,4]triazolo[1,5-a]pyridin-2-yl)ethynyl)-8-(methylamino)-2,7-naphthyridin-3-yl)cyclopropanecarboxamide] | ≤ 500 nM | ≤ 100 nM |
| CNc1ncc(C#Cc2ccc(OCC3COC3)cc2)c2cc(NC(=O)C3CC3)ncc12 [Example 677, N-(8-(methylamino)-5-((4-(oxetan-3-ylmethoxy)phenyl)ethynyl)-2,7-naphthyridin-3-yl)cyclopropanecarboxamide] | ≤ 500 nM | ≤ 100 nM |
| CNc1ncc(C#Cc2ccc(OCC3COC3)cn2)c2cc(NC(=O)C3CC3)ncc12 [Example 678, N-(8-(methylamino)-5-((5-(oxetan-3-ylmethoxy)pyridin-2-yl)ethynyl)-2,7-naphthyridin-3-yl)cyclopropanecarboxamide] | ≤ 500 nM | ≤ 100 nM |
| CNc1ncc(C#Cc2ccc(OCC3CN(C(C)=O)C3)cc2)c2cc(NC(=O)C3CC3)ncc12 [Example 679, N-(5-((4-((1-acetylazetidin-3-yl)methoxy)phenyl)ethynyl)-8-(methylamino)-2,7-naphthyridin-3-yl)cyclopropanecarboxamide] | ≤ 500 nM | ≤ 100 nM |
| CNc1ncc(C#Cc2cc3ccccn3n2)c2cc(NC(=O)C3CC3)ncc12 [Example 680, N-(8-(methylamino)-5-(pyrazolo[1,5-a]pyridin-2-ylethynyl)-2,7-naphthyridin-3-yl)cyclopropanecarboxamide] | ≤ 500 nM | ≤ 100 nM |
| CNc1ncc(C#Cc2ccc3nnn(C(C)C)c3c2)c2cc(NC(=O)C3CC3)ncc12 [Example 681, N-(5-((1-isopropyl-1H-benzo[d][1,2,3]triazol-6-yl)ethynyl)-8-(methylimino)-2,7-naphthyridin-3-yl)cyclopropanecarboxamide] | ≤ 500 nM | ≤ 100 nM |
| CNc1ncc(C#Cc2ccc3nnn(CCOC)c3c2)c2cc(NC(=O)C3CC3)ncc12 [Example 682, N-(5-((1-(2-methoxyethyl)-1H-benzo[d][1,2,3]triazol-6-yl)ethynyl)-8-(methylamino)-2,7-naphthyridin-3-yl)cyclopropanecarboxamide] | ≤ 500 nM | ≤ 100 nM |
| CCn1nnc2ccc(C#Cc3cnc(NC)c4cnc(NC(=O)C5CC5)cc34)cc21 [Example 683, N-(5-((1-ethyl-1H-benzo[d][1,2,3]triazol-6-yl)ethynyl)-8-(methylamino)-2,7-naphthyridin-3-yl)cyclopropanecarboxamide] | ≤ 500 nM | ≤ 100 nM |
| CNc1ncc(C#Cc2ccc3nnn(CC(C)(C)O)c3c2)c2cc(NC(=O)C3CC3)ncc12 [Example 684, N-(5-((1-(2-hydroxy-2-methylpropyl)-1H-benzo[d][1,2,3]triazol-6-yl)ethynyl)-8-(methylamino)-2,7-naphthyridin-3-yl)cyclopropanecarboxamide] | ≤ 500 nM | ≤ 100 nM |
| CNc1ncc(C#Cc2cc3c(cc2F)nnn3C)c2cc(NC(=O)C3CC3)ncc12 [Example 685, N-(5-((5-fluoro-1-methyl-1H-benzo[d][1,2,3]triazol-6-yl)ethynyl)-8-(methylamino)-2,7-naphthyridin-3-yl)cyclopropanecarboxamide] | ≤ 500 nM | ≤ 100 nM |
| CNc1ncc(C#Cc2ccc3nnn(CCC#N)c3c2)c2cc(NC(=O)C3CC3)ncc12 [Example 686, N-(5-((1-(2-cyanoethyl)-1H-benzo[d][1,2,3]triazol-6-yl)ethynyl)-8-(methylamino)-2,7-naphthyridin-3-yl)cyclopropanecarboxamide] | ≤ 500 nM | ≤ 100 nM |

Continued, values first:

| IC50 [1] | Kd [2] | SMILES |
| --- | --- | --- |
| ≤ 500 nM | ≤ 100 nM | CNc1ncc(C#Cc2ncc(OC)cc2C)c2cc(NC(=O)C3CC3)ncc12 [Example 664, N-(5-((5-methoxy-3-methylpyridin-2-yl)ethynyl)-8-(methylamino)-2,7-naphthyridin-3-yl)cyclopropanecarboxamide] |
| ≤ 500 nM | ≤ 100 nM | CNc1ncc(C#Cc2ncc(OC)cc2F)c2cc(NC(=O)C3CC3)ncc12 [Example 665, N-(5-((3-fluoro-5-methoxypyridin-2-yl)ethynyl)-8-(methylamino)-2,7-naphthyridin-3-yl)cyclopropanecarboxamide] |
| ≤ 500 nM | ≤ 100 nM | CNc1ncc(C#Cc2ccc3occc3n2)c2cc(NC(=O)C3CC3)ncc12 [Example 666, N-(5-(furo[3,2-b]pyridin-5-ylethynyl)-8-(methylamino)-2,7-naphthyridin-3-yl)cyclopropanecarboxamide] |
| ≤ 500 nM | ≤ 100 nM | CNc1ncc(C#Cc2cc3ccoc3cn2)c2cc(NC(=O)C3CC3)ncc12 [Example 667, N-(5-(furo[2,3-c]pyridin-5-ylethynyl)-8-(methylamino)-2,7-naphthyridin-3-yl)cyclopropanecarboxamide] |
| ≤ 500 nM | ≤ 100 nM | CNc1ncc(C#Cc2ccc3nc(CO)sc3c2)c2cc(NC(=O)C3CC3)ncc12 [Example 668, N-(5-((2-(hydroxymethyl)benzo[d]thiazol-6-yl)ethynyl)-8-(methylamino)-2,7-naphthyridin-3-yl)cyclopropanecarboxamide] |
| ≤ 500 nM | ≤ 100 nM | CNc1ncc(C#Cc2ccncc2CO)c2cc(NC(=O)C3CC3)ncc12 [Example 669, N-(5-((3-(hydroxymethyl)pyridin-4-yl)ethynyl)-8-(methylamino)-2,7-naphthyridin-3-yl)cyclopropanecarboxamide] |
| ≤ 500 nM | ≤ 100 nM | CNc1ncc(C#Cc2ccc(NC(C)=O)cc2)c2cc(NC(=O)C3CC3)ncc12 [Example 670, N-(5-((4-acetamidophenyl)ethynyl)-8-(methylamino)-2,7-naphthyridin-3-yl)cyclopropanecarboxamide] |
